Experimental data taken from ChEMBL document CHEMBL1134886, “Synthesis of [(2S,3S,4R)-3,4-dihydroxypyrrolidin-2-yl]-5-methylfuran-4-carboxylic acid derivatives: new leads as selective beta-galactosidase inhibitors” (Bioorg Med Chem Lett, 2002).
Calls of active or inactive are those of the source. No cut-off for these calls is given here.

Columns and labels:
[1] = molecular target: Alpha-galactosidase (Coffea arabica) (UniProt Q42656); assay: Inhibitor concentration against Alpha-galactosidase from Coffee beans was tested at a dose of 1 mM; NI means no inhibition
Chain of Alpha-galactosidase (Coffea arabica) (Q42656 whole entry, looked up): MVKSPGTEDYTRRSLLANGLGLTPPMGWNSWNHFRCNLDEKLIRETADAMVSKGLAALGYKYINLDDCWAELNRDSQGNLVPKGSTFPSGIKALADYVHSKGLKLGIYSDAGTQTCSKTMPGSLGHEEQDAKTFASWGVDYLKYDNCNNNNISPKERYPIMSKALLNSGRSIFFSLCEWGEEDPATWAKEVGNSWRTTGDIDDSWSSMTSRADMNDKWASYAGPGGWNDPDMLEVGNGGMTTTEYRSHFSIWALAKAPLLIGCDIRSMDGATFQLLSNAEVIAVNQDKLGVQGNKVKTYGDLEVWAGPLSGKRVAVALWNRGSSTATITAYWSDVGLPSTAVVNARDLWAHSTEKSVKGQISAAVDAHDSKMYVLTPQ

Aspergillus niger = assay: Inhibitor concentration against Amyloglucosidases from Aspergillus niger was tested at a dose of 1 mM; NI means no inhibition
[2] = molecular target: Beta-galactosidase (Escherichia coli) (UniProt Q8VNN2); assay: Compound was tested for Percent inhibition of Beta-galactosidase from Escherichia coli at a dose of 1 mM
Chain of Beta-galactosidase (Escherichia coli) (Q8VNN2 whole entry, looked up): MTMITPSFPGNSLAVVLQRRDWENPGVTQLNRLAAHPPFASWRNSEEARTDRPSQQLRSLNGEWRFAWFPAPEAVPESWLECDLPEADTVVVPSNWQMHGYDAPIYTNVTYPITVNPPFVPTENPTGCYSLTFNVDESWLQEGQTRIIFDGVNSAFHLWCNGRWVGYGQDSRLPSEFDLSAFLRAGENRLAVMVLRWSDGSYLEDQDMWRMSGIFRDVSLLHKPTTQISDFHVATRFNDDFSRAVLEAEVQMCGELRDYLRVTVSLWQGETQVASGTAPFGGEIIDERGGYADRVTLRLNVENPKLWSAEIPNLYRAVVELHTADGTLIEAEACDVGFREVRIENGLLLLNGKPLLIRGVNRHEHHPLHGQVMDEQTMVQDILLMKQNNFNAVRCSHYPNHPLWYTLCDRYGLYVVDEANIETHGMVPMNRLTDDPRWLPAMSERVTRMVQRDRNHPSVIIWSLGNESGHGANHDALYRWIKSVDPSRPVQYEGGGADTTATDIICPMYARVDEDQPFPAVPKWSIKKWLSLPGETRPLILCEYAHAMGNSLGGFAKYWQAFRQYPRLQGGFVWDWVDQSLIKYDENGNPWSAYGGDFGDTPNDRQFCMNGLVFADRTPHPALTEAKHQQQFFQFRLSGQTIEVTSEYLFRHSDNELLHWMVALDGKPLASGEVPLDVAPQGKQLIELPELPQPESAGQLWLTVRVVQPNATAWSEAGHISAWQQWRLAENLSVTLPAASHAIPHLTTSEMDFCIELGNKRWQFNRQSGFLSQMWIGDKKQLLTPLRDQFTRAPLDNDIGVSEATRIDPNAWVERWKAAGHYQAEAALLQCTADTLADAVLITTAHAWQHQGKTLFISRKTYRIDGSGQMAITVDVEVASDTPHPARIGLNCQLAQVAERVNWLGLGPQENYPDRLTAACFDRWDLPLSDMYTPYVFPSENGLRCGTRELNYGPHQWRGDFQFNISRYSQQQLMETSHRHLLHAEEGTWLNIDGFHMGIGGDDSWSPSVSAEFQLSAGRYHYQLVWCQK

Prunus dulcis [3] = assay: Inhibition of alpha-Mannosidases from Almond was tested at a dose of 1 mM; NI means no inhibition
[4] = molecular target: T1, Beta-galactosidase (Bos taurus) (UniProt Q58D55); assay: Compound was tested for Percent inhibition of Beta-galactosidase from Bovine liver at a dose of 1 mM
T1 sequence (whole entry): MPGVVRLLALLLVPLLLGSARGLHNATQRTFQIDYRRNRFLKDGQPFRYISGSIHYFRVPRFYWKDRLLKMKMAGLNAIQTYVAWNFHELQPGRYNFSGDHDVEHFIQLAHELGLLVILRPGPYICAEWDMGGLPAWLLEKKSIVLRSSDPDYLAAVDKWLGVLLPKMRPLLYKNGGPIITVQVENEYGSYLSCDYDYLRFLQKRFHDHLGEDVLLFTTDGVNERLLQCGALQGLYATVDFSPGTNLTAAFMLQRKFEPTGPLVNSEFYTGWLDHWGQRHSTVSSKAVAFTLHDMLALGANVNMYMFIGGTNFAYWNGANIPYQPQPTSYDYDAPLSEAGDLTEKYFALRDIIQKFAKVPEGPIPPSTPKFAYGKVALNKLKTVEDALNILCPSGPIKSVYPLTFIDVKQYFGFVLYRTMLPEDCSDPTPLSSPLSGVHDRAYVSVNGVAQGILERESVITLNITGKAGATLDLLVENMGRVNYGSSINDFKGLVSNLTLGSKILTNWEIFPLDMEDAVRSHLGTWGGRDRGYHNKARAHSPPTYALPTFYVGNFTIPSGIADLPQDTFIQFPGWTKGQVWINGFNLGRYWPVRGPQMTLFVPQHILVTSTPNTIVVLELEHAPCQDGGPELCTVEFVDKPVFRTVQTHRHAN

Canavalia ensiformis = assay: Compound was tested for Percent inhibition of alpha-Mannosidases from Jack beans at a dose of 1 mM
[5] = molecular target: T2, Beta-galactosidase (Aspergillus niger) (UniProt P29853); assay: Compound was tested for Percent inhibition of Beta-galactosidase from Aspergillus niger at a dose of 1 mM
T2 sequence (whole entry): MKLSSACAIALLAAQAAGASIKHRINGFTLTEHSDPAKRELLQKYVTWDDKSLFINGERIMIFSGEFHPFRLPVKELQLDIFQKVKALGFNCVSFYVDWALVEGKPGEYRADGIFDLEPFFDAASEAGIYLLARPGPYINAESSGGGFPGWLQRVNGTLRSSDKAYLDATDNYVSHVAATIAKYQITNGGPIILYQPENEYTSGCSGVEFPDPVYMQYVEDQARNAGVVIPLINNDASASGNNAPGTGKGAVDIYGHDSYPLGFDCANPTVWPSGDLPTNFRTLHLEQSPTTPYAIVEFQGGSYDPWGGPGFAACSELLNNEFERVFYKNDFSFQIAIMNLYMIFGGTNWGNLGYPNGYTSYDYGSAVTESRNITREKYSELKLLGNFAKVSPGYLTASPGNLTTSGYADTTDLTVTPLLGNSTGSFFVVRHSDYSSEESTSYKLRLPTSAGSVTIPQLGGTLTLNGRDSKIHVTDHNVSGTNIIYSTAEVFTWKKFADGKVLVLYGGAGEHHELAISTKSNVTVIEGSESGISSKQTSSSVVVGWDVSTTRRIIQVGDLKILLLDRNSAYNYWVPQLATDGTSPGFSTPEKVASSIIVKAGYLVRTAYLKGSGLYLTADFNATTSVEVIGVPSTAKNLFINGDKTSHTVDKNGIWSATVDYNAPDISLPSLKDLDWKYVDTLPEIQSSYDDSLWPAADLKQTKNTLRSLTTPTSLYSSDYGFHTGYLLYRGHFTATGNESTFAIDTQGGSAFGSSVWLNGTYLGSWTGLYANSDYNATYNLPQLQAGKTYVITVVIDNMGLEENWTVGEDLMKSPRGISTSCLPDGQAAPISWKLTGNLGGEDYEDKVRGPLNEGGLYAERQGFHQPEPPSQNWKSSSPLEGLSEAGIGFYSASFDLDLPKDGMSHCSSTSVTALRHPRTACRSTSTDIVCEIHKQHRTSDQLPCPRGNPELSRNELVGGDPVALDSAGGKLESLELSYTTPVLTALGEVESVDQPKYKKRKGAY

Rhizopus [6] = assay: Compound was tested for Percent inhibition of Amyloglucosidases from Rhizopus mold; NI means no inhibition
Beta-galactosidase [7] = molecular target: T3, Beta-galactosidase (Aspergillus niger, UniProt P29853); assay: Inhibitor concentration against Beta-galactosidase from Aspergillus niger was tested at a dose of 1 mM
T3 sequence (P29853 whole entry): T2 sequence (whole entry)

Rhizopus [8] = assay: Inhibitor concentration against Amyloglucosidases from Rhizopus mold was tested at a dose of 1 mM; NI means no inhibition
Beta-galactosidase [9] = molecular target: T4, Beta-galactosidase (Bos taurus, UniProt Q58D55); assay: Inhibitor concentration against Beta-galactosidase from Bovine liver
T4 sequence (Q58D55 whole entry): T1 sequence (whole entry)

[10] = molecular target: Beta-galactosidase (Escherichia coli) (UniProt Q8VNN2); assay: Inhibitor concentration against Beta-galactosidase from was Escherichia coli tested at a dose of 1 mM; NI means no inhibition
[11] = molecular target: T2, Beta-galactosidase (Aspergillus niger); assay: Compound was tested for Percent inhibition of Beta-galactosidase from Aspergillus niger; details: concentration not given here
[12] = molecular target: T5, Tissue alpha-L-fucosidase (Homo sapiens) (UniProt P04066); assay: Compound was tested for Percent inhibition of alpha-L-Fucosidase from Human placenta at a dose of 1 mM
T5 sequence (whole entry): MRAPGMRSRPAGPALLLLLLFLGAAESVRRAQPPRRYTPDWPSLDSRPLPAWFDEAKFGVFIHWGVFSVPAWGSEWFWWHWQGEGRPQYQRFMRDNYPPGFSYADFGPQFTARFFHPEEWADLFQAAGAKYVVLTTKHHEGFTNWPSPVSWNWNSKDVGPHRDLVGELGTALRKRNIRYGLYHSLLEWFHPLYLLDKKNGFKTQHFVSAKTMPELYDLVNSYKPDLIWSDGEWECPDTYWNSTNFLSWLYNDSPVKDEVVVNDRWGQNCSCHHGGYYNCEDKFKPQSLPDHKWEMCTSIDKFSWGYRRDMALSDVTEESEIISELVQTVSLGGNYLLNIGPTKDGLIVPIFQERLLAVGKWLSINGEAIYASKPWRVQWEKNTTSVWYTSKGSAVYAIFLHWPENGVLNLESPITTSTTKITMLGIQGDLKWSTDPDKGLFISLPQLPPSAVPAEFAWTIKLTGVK

[13] = molecular target: alpha-galactosidase (Escherichia coli) (UniProt P06720); assay: Inhibitor concentration against alpha-Galactosidase from Escherichia coli was tested at a dose of 1 mM; NI means no inhibition
Chain of alpha-galactosidase (Escherichia coli) (P06720 whole entry, looked up): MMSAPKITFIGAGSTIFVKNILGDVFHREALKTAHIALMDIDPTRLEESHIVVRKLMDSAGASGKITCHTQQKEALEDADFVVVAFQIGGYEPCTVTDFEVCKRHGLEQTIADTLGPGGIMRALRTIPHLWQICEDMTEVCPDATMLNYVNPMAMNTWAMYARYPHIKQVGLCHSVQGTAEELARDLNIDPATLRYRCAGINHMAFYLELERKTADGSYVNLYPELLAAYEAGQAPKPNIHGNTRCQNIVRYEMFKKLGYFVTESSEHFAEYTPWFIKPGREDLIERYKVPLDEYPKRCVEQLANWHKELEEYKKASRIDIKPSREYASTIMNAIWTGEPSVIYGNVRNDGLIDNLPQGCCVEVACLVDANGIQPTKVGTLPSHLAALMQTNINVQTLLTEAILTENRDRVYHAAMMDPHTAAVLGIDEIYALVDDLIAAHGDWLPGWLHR

Prunus dulcis [14] = assay: Inhibitor concentration against alpha-Mannosidases from Almond was tested at a dose of 1 mM; NI means no inhibition
Prunus dulcis [15] = assay: Inhibitor concentration against alpha-Mannosidases from Almond was tested at a dose of 1 mM
[16] = molecular target: T2, Beta-galactosidase (Aspergillus niger); assay: Inhibitor concentration against Beta-galactosidase from Aspergillus niger was tested at a dose of 1 mM; NI means no inhibition
[17] = molecular target: Beta-galactosidase (Escherichia coli) (UniProt Q8VNN2); assay: Inhibitor concentration against Beta-galactosidase from Escherichia coli was tested at a dose of 1 mM; NI means no inhibition
[18] = molecular target: Alpha-galactosidase (Coffea arabica) (UniProt Q42656); assay: Compound was tested for Percent inhibition of Alpha-galactosidase from Coffee bean at a dose of 1 mM
Beta-galactosidase [19] = molecular target: T3, Beta-galactosidase; assay: Inhibitor concentration against Beta-galactosidase from Aspergillus niger
Beta-galactosidase [20] = molecular target: T3, Beta-galactosidase; assay: Inhibition constant(Non competitive) of compound against Beta-galactosidase from Aspergillus niger
Prunus dulcis [21] = assay: Inhibition of alpha-Mannosidases from Almonds was tested at a dose of 1 mM
[22] = molecular target: Alpha-galactosidase (Coffea arabica) (UniProt Q42656); assay: Compound showed Non competitive inhibition against Alpha-galactosidase from coffee bean; NI means no inhibition at a dose of 1 mM
Prunus dulcis [23] = assay: Inhibitor concentration against alpha-Mannosidases from Almonds was tested at a dose of 1 mM

Row | SMILES | inhibition (Aspergillus niger) | inhibition [2] | inhibition [4] | inhibition (Canavalia ensiformis) | inhibition [5] | inhibition (Rhizopus [6]) | IC50 (Beta-galactosidase [9]) | inhibition [12] | inhibition [17] | also measured
1 | CCOC(=O)c1cc([C@H]2NC[C@@H](O)[C@H]2O)oc1C | inactive | 83% | 78% | 49% | 99% | inactive | – | – | – | Ki [1]: Not Active; inhibition (Prunus dulcis [3]): 37%
2 | Cc1oc([C@H]2NC[C@@H](O)[C@H]2O)cc1C(=O)NC(C)C | inactive | – | 49% | – | – | – | 1000 µM | 39% | – | IC50 (Beta-galactosidase [7]): 250 µM; inhibition (Rhizopus [8]): inactive; inhibition [10]: inactive; inhibition [11]: 79%
3 | CCOC(=O)c1cc([C@@H]2NC[C@@H](O)[C@H]2O)oc1C | inactive | – | 57% | 38% | 80% | – | – | 76% | – | inhibition [13]: inactive; inhibition (Prunus dulcis [14]): inactive
4 | Cc1oc([C@@H]2NC[C@@H](O)[C@H]2O)cc1C(=O)NC(C)C | 23% | – | 38% | – | – | – | – | – | inactive | inhibition (Prunus dulcis [15]): 9%; inhibition [16]: inactive; inhibition [18]: 29%
5 | CCN(CC)C(=O)c1cc([C@H]2NC[C@@H](O)[C@H]2O)oc1C | inactive | 33% | 90% | 37% | 96% | inactive | 42 µM | – | – | IC50 (Beta-galactosidase [19]): 28 µM; Ki (Beta-galactosidase [20]): 30 µM; inhibition (Prunus dulcis [21]): 38%; inhibition [22]: No inhibition
6 | CCN(CC)C(=O)c1cc([C@@H]2NC[C@@H](O)[C@H]2O)oc1C | inactive | – | 58% | 27% | – | – | – | 91% | inactive | inhibition (Prunus dulcis [23]): 31%
